Patent US9376470B2, “Polypeptide having angiogenesis-inducing activity and antibacterial activity, and use thereof for medical purposes” (FunPep Inc., priority 2008, dated 2016)
Peptide text beside a SMILES is read from it.

What was measured:
[1] = test system: Pseudomonas aeruginosa ATCC27853; experiment: Antibacterial activity, ATP assay (BacTiter-Glo); type: cell-based; conditions: for ATP (%) mean, Pseudomonas aeruginosa: Table 4-1, ATP assay concentration: peptides 10, TOB 1.0, CPFX 1.0, OX 0.5, MEPM 1.0 μg/ml
Procedure: (§1) The antibacterial activity of the polypeptides was measured using an ATP assay method. That is, using BacTiter-Glo Microbial Cell Viability Assay kit available from PROMEGA, the antibacterial activity of the peptides was evaluated from the viability of bacteria. […] With respect to the strains, Staphylococcus aureus ATCC29213 (S. aureus ATCC29213) as Gram-positive bacteria, or, alternatively, Pseudomonas aeruginosa (P. aeruginosa ATCC27853) as Gram-negative bacteria, was used. The bacteria were cultured in media for 3 to 4 hours, and thereafter absorbances at A600 were measured. Bacterial suspensions were diluted with Mueller-Hinton broth (MHB) according to McFarland #0.5. Each strain was added so as to attain about 0.5−1×10^5 CFU/mL (final concentration) in terms of Escherichia coli. […] A solution to which the peptides were not added was considered as a negative control, and a solution to which tobramycin (TOB) was added was considered as a positive control. […] Relative values were calculated by comparison with the negative control, and these values were regarded as the viability. ATP (%) of the antibacterial activity was measured in the same manner as mentioned above, and the “minimum inhibitory concentration (MIC)” was measured as follows. MIC is the lowest concentration of an agent that may inhibit the growth of a bacterium. MIC is used as a parameter for the efficacy of an antibacterial agent, for the strength of bacterial sensitivity, or the like. The bacteria can grow (proliferate) when the concentration is not higher than MIC, and cannot grow when the concentration is higher than MIC. Its measurement is carried out according to a method defined as a standard method by Japanese Society of Chemotherapy or CLINICAL AND LABORATORY […] (CLSI), but, in this Example, its measurement was carried out by a broth microdilution method in accordance with “M100-S17/M7-A7” (Performance Standards for Antimicrobial Susceptibility Testing; Seventeenth Informational Supplement, Vol. 27 No. 1) published by CLSI on January, 2007. That is, sensitivity test of agents was carried out using a microtiter plate or test tubes. With respect to each strain, Escherichia coli: ATCC 25922 (Escherichia coli ATCC 25922), Pseudomonas aeruginosa: ATCC 27853 (Pseudomonas aeruginosa ATCC 27853), Staphylococcus aureus: ATCC29213 (Staphylococcus aureus ATCC29213), Klebsiella pneumoniae: JCM 1662 (Klebsiella pneumoniae JCM 1662), enterobacteria (1): JCM 1232 (Enterobacter cloacae JCM 1232), enterobacteria (2): JCM 1235 (Enterobacter aerogenes JCM 1235), and Staphylococcus epidermidis: JCM 2414 (Staphylococcus epidermidis JCM 2414), were used. […] As the concentrations of the agents in ATP assay, the concentrations as described in the Tables were used.

[2] = test system: Staphylococcus aureus ATCC29213; experiment: Antibacterial activity, ATP assay (BacTiter-Glo); type: cell-based; conditions: for ATP (%) mean, Staphylococcus aureus: Table 4-1, ATP assay concentration: peptides 10, TOB 1.0, OX 0.5 μg/ml; for antibacterial activity against Staphylococcus aureus compared with AG30-5C: 10 μg/mL, ATP assay
Procedure: as §1

[3] = in vitro; type: in vitro ADME, rat; conditions: for half-life: rat serum, 37° C.
Procedure: Then, the stability of five polypeptides SR-1 to 5 in serum was evaluated.
In human serum (purchased from KAC Co., Ltd.), or in rat serum obtained by collecting blood from a rat, then leaving the collected blood to stand at room temperature followed by centrifugation, each of the peptides was dissolved so as to attain a final concentration of 500 μg/mL, and the obtained solutions were left to stand at 37° C. After leaving to stand for 10 min or 30 min or 60 min, these solutions were subjected to HPLC chromatogram analysis to detect peaks of the decomposition products, and calculate the ratio of the concentration of the peptides which remained in the solutions relative to the starting concentration. In addition, the half-lives of the peptides in serum were also calculated.
HPLC chromatogram analysis conditions are as follows.

[4] = test system: Crl:CD (SD) rats, cut wound; experiment: Effect to heal cut wounds, rat cut-wound model; type: in vivo; conditions: for scars of cut wounds / cicatrization by visual observation, compared with the bFGF formulation: rat cut-wound model, data not shown
Procedure: Next, using rat cut-wound model, the effect of the five polypeptides SR-1 to 5 to heal cut wounds in vivo was evaluated. As described in Tetsuaki Yamaura et al. (Oyo Yakuri (Pharmacometrics) 22, 565-579 (1981)), the rat cut-wound model was produced and the wound closing tension was measured. That is, a cut wound of 30 to 36 mm was made on the back of Crl:CD (SD) rats (male, 7-week old, obtained from Charles River Laboratories Japan, Inc.) using a safety razor, and sutured at 3 points equally spaced. The day when this surgical treatment was applied was regarded as […] (day 0). […] Additions of 50 μL physiological saline were regarded as negative controls (Saline). […] The sutures were removed day 3, and the wound closing tension was measured on day 6.

[5] = Table 3, peptides 10 μg/mL, 3 hours, ATP relative to negative control

Row | Structure (SMILES) | ATP (%) mean, Pseudomonas aeruginosa [1] | ATP (%) mean, Staphylococcus aureus [2] | antibacterial activity against Staphylococcus aureus compared with AG30-5C [2] | decomposition in rat serum [3] | half-life [3] | remaining at 0.5 h, 500 μg/mL ([3]; rat, serum) | remaining at 1 h, 500 μg/mL ([3]; rat, serum) | wound closing tension ([4]; 10, 100 and 1000 μg/mL, 50 μL dropwise once a day, measured on day 6) | scars of cut wounds / cicatrization by visual observation, compared with the bFGF formulation [4] | antibacterial activity against Pseudomonas aeruginosa compared with AG30-5C ([1]; 10 μg/mL, ATP assay) | remaining at 10 min, 500 μg/mL ([3]; rat, serum) | Viability (%) Staphylococcus aureus [2, 5] | Viability (%) Pseudomonas aeruginosa [1, 5]
1 | C[C@@H](O)[C@H]1C(=O)N2C(C(=O)O)=C(S[C@@H]3CN[C@H](C(=O)N(C)C)C3)[C@H](C)[C@H]12 [MEPM, meropenem, reference compound] | 20.2% | – | – | – | – | – | – | – | – | – | – | – | –
2 | Cc1onc(-c2ccccc2)c1C(=O)N[C@@H]1C(=O)N2[C@@H]1SC(C)(C)[C@@H]2C(=O)O [OX, oxacillin, reference compound] | 83.1% | 72.8% | – | – | – | – | – | – | – | – | – | – | –
3 | CC[C@H](C)[C@H](NC(=O)[C@H](CC(C)C)NC(=O)[C@H](CCCCN)NC(=O)[C@H](CC(C)C)NC(=O)[C@@H](N)CCSC)C(=O)N[C@@H](Cc1ccccc1)C(=O)N[C@@H](CC(C)C)C(=O)N[C@@H](Cc1c[nH]cn1)C(=O)N[C@@H](CCCNC(=N)N)C(=O)N[C@@H](CC(C)C)C(=O)N[C@@H](CCCCN)C(=O)N[C@@H](CCCNC(=N)N)C(=O)N[C@@H](CCSC)C(=O)N[C@@H](CCCNC(=N)N)C(=O)N[C@@H](CCCCN)C(=O)N[C@@H](CCCNC(=N)N)C(=O)N[C@@H](CC(C)C)C(=O)N[C@@H](CCCCN)C(=O)N[C@@H](CCCNC(=N)N)C(=O)N[C@@H](CCCCN)C(=O)O [SR-1] (H-MLKLIFLHRLKRMRKRLKRK-OH; N-terminus assumed) | 26.0% | 5.2% | higher antibacterial activity against Staphylococcus aureus than AG30-5C | completely decomposed | 3 min | 0% | 0% | effect of increasing the wound closing tension | cicatrization was hardly observed | – | – | – | –
4 | CC(C)C[C@H](NC(=O)[C@H](CCCCN)NC(=O)[C@H](CCCNC(=N)N)NC(=O)[C@H](CCCCN)NC(=O)[C@H](CC(C)C)NC(=O)[C@H](CCCNC(=N)N)NC(=O)[C@H](CCCCN)NC(=O)[C@H](CCCNC(=N)N)NC(=O)[C@H](CC(C)C)NC(=O)[C@H](CCCNC(=N)N)NC(=O)[C@H](CCCNC(=N)N)NC(=O)[C@H](CCCCN)NC(=O)[C@H](CC(C)C)NC(=O)[C@H](CCCNC(=N)N)NC(=O)[C@H](Cc1c[nH]cn1)NC(=O)[C@H](CC(C)C)NC(=O)[C@H](Cc1ccccc1)NC(=O)[C@H](CCCNC(=N)N)NC(=O)[C@H](CC(C)C)NC(=O)[C@@H](N)CCC(=O)O)C(=O)N[C@@H](CCCNC(=N)N)C(N)=O [SR-2] (H-ELRFLHRLKRRLRKRLKRKLR-NH2; N-terminus assumed) | 1.0% | 4.4% | higher antibacterial activity against Staphylococcus aureus than AG30-5C | 35-55% | 75 min | – | 51.7% | – | cicatrization was hardly observed | higher antibacterial activity against Pseudomonas aeruginosa than AG30-5C | 69% | – | –
5 | NC[C@H]1O[C@H](O[C@H]2[C@H](O)[C@@H](O[C@H]3O[C@H](CO)[C@@H](O)[C@H](N)[C@H]3O)[C@H](N)C[C@@H]2N)[C@H](N)C[C@@H]1O [TOB, tobramycin, reference compound] | 1.7% | 3.1% | – | – | – | – | – | – | – | – | – | 3.5% | 1.8%
